Source: patent US20190119284A1, “ErbB Inhibitors and Uses Thereof” (The Regents of the University of California, priority 2016, published 2019)
One block for each compound: values may come before it.

Assays:
TYRO3 = TYRO3 (Homo sapiens, UniProt Q06418); test: Nanosyn in vitro kinase profiling: TYRO3; format: biochemical
Description: (§1) This was confirmed by in vitro profiling against a panel of kinases, with compound 2 only showing potent inhibition of EGFR and Ab1 (Table 2).
(§2) In vitro Kinome Screen. In vitro profiling of compound 2 at 100 nM was conducted by Nanosyn.

ErbB3-ICD665-1323 = target: T1, ErbB3-ICD665-1323 (Homo sapiens, UniProt P21860); test: HER3 Autophosphorylation Assay; format: biochemical; details: purified clustered HER3 intracellular domain
T1 construct: The HER3 intracellular domain (665-1323) was concentrated on vesicles; made in house
Description: HER3 Autophosphorylation Assay. ErbB3-ICD^665-1323 wild-type expression and purification was performed exactly as previously described. To monitor the change in autophosphorylation, 1 μM ErbB3-ICD^665-1323 protein was incubated with inhibitors (varied concentrations noted in the figure) and DOGS-Ni-NTA (prepared as described in Zhang et al.[4]) in 100 mM MOPS pH 7.4, containing 200 mM NaCl, divalent cations (2 mM MnCl2 plus 5 mM MgCl2), 5% glycerol, 0.1 mM DTT and 200 μM ATP for 1 hour at 25 ° C., and the reactions were stopped by adding 50 mM EDTA and SDS-PAGE gel-loading buffer for rapid qualitative comparison of autophosphorylation by SDS-PAGE and immunoblotting with anti-phosphotyrosine (pY20) and anti-(His)5.

TSSK1 = TSSK1 (Homo sapiens, UniProt Q9BXA7); test: Nanosyn in vitro kinase profiling: TSSK1; format: biochemical
Description: as §1, §2

TRKC = TRKC (Homo sapiens, UniProt Q16288); test: Nanosyn in vitro kinase profiling: TRKC; format: biochemical
Description: as §1, §2

EPH-B4 = EPH-B4 (Homo sapiens, UniProt P54760); test: Nanosyn in vitro kinase profiling: EPH-B4; format: biochemical
Description: as §1, §2

ALK = ALK (Homo sapiens, UniProt Q9UM73); test: Nanosyn in vitro kinase profiling: ALK; format: biochemical
Description: as §1, §2

[1] = target: mutationally activated forms of EGFR (Homo sapiens, UniProt P00533, DEL746-750); test: EGFR phosphosite signaling in NCI-H1650 cells; format: cell-based; parameters: endogenous in cells; host or cells: NCI-H1650 (A2); details: concentration giving near complete inhibition
[2] = target: T2, EGFR gatekeeper to methionine mutant in NCI-H1975 cells (Homo sapiens, UniProt P00533, L858R/T790M); test: EGFR signaling and proliferation in NCI-H1975 cells; format: cell-based
T2 construct: mutation of the EGFR gatekeeper to methionine in NCI-H1975 cells; endogenous in cells; host or cells: NCI-H1975

NCI-H1781 cells = test: 72 h proliferation of NCI-H1781 cells; format: cell-based; details: NCI-H1781, 72 h
[3] = test system: HER2/HER3 signaling in CHL-1 cells; test: HER2/HER3 signaling in CHL-1 cells; format: cell-based; details: compared with lapatinib
JAK2 = JAK2 (Homo sapiens, UniProt O60674); test: Nanosyn in vitro kinase profiling: JAK2; format: biochemical; details: compound at 1 μM
CAMK4 = CAMK4 (Homo sapiens, UniProt Q16566); test: Nanosyn in vitro kinase profiling: CAMK4; format: biochemical; details: compound at 1 μM
CHL-1 cells = test: growth of CHL-1 cells over 96 h (IncuCyte Zoom confluence); format: cell-based; details: CHL-1, 96 h, compared with lapatinib
[4] = test system: NRG autocrine signaling in CHL-1 cells; test: NRG autocrine feedback signaling in CHL-1 cells (immunoblot); format: cell-based; details: CHL-1 cells pre-treated with lapatinib 24 h, washed, drug 24 h; at 1 μM
Description: Similar results were obtained in FaDu cells, which are also dependent on NRG autocrine signaling (FIGS. 20A-20B).
Immunoblotting. Cells were grown in 6 well plates and treated according to the indicated conditions at which point the media was aspirated, cells were washed with 1 mL of cold PBS, which was then aspirated and the plates were frozen at −80° C. The frozen cells were thawed on the plates in a buffer containing 50 mM Tris pH 7.5, 150 mM NaCl, 1 mM EDTA, and 1% Triton X-100 supplemented with 1× phosphatase (PhoSTOP, Roche) and 1× protease (complete-mini tablets, Roche) inhibitors. Lysates were scraped, transferred to Eppendorf tubes, and cleared by centrifugation at 20,000×g for 20 min at 4° C. The clarified lysates were transferred to chilled, clean tubes, and normalized for protein concentration by Bradford (Bio-Rad). The normalized lysates were diluted with Laemmli loading buffer, and 10 μg of total protein was run on a 4-12% gradient gel (Invitrogen), which was then transferred to […] nitrocellulose (Bio-Rad) and analyzed using the indicated primary antibodies according to the manufacturer's recommendations. Primary antibodies were detected using IRDye secondary antibodies (Li-Cor) according to the manufacturer's recommendations and scanned on an Odyssey imager (Li-Cor). Scanned images were cropped and assembled in Adobe Illustrator 6.

MAPK1 = MAPK1 (Homo sapiens, UniProt P28482); test: Nanosyn in vitro kinase profiling: MAPK1; format: biochemical; details: compound at 1 μM
[5] = test system: 2YFTM/HER3wt and 2YFTM/3TM Ba/F3 cells; test: Ba/F3 proliferation assay, HER2 gatekeeper mutant lines; format: cell-based; details: Ba/F3 lines with methionine gatekeeper mutation in HER2
Description: Proliferation Assays. […] For all normalized assays, proliferation was normalized to the DMSO control condition. All graphs were plotted in GraphPad Prism 6 and fit with a non-linear regression of the log(inhibitor) vs response with a variable slope where shown. All graphs are averages (+/−standard deviation) of biological triplicates each performed in technical triplicate unless otherwise noted. If only one biological replicate was performed standard deviations were derived from the technical replicates.

EPH-B4, sequence (P54760 16-987, species assumed): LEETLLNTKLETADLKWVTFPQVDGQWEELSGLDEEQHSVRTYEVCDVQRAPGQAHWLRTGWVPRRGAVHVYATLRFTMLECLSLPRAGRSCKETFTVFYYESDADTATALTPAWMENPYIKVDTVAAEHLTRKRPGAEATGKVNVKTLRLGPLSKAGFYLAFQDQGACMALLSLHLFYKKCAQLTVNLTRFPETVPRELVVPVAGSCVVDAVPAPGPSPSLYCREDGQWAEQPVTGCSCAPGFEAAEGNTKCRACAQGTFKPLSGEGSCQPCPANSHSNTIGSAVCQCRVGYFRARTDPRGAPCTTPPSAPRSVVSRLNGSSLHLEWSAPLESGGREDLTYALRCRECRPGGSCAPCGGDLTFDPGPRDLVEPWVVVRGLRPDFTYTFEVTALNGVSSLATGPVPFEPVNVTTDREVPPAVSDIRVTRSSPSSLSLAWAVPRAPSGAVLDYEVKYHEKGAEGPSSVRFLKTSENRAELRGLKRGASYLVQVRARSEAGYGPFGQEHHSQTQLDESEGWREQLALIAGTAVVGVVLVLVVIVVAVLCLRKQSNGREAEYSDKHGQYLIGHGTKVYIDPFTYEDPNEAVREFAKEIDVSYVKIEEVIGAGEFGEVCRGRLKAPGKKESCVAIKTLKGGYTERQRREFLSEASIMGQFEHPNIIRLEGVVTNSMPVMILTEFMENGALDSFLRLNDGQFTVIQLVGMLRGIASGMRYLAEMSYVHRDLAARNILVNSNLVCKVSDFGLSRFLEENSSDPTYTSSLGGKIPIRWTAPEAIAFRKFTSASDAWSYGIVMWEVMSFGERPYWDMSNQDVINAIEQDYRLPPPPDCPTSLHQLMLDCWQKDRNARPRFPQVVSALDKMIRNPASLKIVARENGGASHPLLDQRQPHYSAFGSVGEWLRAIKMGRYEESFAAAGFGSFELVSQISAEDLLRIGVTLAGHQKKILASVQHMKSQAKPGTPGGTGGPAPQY
ALK, sequence (Q9UM73 19-1620, species assumed): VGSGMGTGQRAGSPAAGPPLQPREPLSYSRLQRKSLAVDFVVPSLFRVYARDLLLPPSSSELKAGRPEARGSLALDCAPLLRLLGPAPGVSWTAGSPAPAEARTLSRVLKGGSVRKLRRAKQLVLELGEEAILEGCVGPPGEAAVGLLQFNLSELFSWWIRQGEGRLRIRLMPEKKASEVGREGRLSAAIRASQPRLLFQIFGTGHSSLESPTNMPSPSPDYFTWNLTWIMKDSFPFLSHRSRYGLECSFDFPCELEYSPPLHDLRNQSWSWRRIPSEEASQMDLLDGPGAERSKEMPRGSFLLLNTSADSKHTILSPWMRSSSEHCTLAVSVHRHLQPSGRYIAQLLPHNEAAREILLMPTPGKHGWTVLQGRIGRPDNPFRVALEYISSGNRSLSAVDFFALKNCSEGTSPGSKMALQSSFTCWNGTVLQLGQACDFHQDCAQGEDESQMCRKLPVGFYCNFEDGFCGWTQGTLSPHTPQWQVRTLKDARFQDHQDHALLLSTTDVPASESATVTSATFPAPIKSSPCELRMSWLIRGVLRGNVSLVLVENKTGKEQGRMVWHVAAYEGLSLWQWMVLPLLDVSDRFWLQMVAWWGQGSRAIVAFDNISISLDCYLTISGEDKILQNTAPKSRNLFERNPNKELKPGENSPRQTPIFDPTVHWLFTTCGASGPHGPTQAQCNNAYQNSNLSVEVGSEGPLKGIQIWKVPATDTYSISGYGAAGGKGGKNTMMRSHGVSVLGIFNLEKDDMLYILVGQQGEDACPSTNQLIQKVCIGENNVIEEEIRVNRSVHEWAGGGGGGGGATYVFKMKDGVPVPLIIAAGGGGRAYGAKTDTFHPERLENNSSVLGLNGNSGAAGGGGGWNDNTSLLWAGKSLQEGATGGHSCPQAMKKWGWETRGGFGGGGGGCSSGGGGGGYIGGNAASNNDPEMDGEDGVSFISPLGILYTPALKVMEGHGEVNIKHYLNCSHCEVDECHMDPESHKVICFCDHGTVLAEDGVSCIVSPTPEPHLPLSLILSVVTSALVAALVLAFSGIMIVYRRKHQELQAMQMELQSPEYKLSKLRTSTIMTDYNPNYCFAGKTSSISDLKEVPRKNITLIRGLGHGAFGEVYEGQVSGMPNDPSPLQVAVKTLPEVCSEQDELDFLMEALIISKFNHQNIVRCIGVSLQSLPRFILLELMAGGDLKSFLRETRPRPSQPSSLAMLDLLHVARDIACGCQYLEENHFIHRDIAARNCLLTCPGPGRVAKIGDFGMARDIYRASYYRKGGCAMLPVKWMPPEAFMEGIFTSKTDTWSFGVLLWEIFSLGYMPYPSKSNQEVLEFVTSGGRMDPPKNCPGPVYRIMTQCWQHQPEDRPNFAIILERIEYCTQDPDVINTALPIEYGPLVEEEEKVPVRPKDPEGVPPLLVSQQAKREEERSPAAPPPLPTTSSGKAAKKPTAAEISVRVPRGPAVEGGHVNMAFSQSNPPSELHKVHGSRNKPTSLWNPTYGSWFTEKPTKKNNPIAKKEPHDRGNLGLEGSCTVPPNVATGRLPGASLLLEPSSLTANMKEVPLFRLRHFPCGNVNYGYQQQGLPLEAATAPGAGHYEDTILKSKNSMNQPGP
T2 sequence (P00533 25-1210 T790M/L858R): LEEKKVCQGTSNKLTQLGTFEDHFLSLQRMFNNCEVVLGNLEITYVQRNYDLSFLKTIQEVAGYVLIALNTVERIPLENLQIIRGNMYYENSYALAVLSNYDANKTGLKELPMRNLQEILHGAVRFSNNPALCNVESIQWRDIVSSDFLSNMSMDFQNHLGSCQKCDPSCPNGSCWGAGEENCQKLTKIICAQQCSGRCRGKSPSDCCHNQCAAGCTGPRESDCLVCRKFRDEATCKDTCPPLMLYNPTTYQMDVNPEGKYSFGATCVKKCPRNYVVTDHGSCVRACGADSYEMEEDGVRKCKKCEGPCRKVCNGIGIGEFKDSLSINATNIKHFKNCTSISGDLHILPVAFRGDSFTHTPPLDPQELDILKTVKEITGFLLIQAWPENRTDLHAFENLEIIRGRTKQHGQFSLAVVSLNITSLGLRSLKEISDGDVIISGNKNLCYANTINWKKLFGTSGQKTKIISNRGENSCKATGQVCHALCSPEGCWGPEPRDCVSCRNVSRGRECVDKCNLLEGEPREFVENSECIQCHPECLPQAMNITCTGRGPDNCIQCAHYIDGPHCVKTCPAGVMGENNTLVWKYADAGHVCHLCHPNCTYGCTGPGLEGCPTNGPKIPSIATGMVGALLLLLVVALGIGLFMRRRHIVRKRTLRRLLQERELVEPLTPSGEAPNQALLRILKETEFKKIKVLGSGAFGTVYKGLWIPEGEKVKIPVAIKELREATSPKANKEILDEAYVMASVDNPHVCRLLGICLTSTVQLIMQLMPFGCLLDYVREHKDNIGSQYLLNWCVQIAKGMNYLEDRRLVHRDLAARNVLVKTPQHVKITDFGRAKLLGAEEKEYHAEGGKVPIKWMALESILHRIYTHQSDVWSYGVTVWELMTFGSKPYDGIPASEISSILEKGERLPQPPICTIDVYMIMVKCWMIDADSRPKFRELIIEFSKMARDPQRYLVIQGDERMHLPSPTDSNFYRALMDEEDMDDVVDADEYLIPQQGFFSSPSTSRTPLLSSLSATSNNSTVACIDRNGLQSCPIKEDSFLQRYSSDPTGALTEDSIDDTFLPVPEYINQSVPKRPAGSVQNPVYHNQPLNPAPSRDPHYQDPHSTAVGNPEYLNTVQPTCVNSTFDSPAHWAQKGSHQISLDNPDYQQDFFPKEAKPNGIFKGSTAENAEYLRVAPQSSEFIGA
TYRO3, sequence (Q06418 41-890, species assumed): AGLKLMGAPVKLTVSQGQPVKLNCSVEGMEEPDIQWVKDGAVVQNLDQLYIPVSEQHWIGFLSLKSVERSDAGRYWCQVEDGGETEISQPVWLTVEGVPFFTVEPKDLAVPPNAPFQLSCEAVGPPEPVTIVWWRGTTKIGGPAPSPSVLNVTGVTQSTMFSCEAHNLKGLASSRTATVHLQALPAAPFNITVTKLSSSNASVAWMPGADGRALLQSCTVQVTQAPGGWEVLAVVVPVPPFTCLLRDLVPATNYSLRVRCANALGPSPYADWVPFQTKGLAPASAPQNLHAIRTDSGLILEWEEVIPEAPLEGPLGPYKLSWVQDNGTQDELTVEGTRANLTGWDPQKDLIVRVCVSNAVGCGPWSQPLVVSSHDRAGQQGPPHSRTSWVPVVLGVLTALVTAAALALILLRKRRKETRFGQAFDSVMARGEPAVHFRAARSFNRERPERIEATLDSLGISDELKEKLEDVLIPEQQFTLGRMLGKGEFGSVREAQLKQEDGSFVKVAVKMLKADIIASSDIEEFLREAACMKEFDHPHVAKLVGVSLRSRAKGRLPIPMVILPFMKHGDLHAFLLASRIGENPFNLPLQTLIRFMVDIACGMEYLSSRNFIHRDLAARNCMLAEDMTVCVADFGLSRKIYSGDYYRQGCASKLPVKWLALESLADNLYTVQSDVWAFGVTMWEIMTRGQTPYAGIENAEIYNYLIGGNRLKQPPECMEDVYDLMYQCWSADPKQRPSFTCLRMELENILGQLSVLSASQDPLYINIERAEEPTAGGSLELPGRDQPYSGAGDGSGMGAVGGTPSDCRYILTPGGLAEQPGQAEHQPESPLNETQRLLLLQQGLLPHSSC
TSSK1, sequence (Q9BXA7 whole entry, species assumed): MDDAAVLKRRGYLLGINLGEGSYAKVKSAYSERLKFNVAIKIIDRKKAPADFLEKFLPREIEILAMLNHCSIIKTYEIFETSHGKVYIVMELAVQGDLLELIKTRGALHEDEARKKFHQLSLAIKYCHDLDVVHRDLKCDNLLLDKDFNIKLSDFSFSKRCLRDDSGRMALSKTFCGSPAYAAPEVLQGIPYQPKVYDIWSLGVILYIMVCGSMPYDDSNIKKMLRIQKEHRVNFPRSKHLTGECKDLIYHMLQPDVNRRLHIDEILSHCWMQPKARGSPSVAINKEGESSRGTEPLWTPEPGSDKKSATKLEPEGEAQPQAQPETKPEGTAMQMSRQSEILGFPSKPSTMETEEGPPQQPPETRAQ

inhibition at 0.1 µM (TYRO3; compound at 100 nM): 3.29% | inhibition at 1 µM (TYRO3; compound at 1 μM): 5.56% | inhibition of HER3 auto-phosphorylation (ErbB3-ICD665-1323): able to inhibit | inhibition at 0.1 µM (TSSK1; compound at 100 nM): 0.665% | inhibition at 1 µM (TSSK1; compound at 1 μM): -3.06% | inhibition at 0.1 µM (TRKC; compound at 100 nM): 15.7% | inhibition at 1 µM (TRKC; compound at 1 μM): 46.9% | inhibition at 0.1 µM (EPH-B4; compound at 100 nM): 3.44% | inhibition at 1 µM (EPH-B4; compound at 1 μM): 21.7% | inhibition at 0.1 µM (ALK; compound at 100 nM): 6.14% | inhibition at 1 µM (ALK; compound at 1 μM): 19.8%
SMILES: COc1ccc(-c2ccco2)cc1Nc1ncnc2[nH]nc(-c3ccco3)c12 [compound 2, 3-(furan-2-yl)-N-(5-(furan-2-yl)-2-methoxyphenyl)-1H-pyrazolo[3,4-d]pyrimidin-4-amine]

near complete inhibition of multiple phosphosites on EGFR [1]: less than 10 nM | p-845 site inhibition at concentrations ([2]; EGFR gatekeeper methionine): less than 1 μM | inhibition at 1 µM (JAK2): 83% | inhibition at 1 µM (CAMK4): 0% | inhibition at 1 µM (MAPK1): -2%
SMILES: COc1ccc(-c2ccoc2)cc1Nc1ncnc2[nH]cc(-c3cc[nH]n3)c12 [compound 3, N-(5-(furan-3-yl)-2-methoxyphenyl)-5-(1H-pyrazol-3-yl)-7H-pyrrolo[2,3-d]pyrimidin-4-amine]
effect of EGFR gatekeeper methionine mutation on inhibition ([2]; signaling and proliferation): caused a shift in the ability of compound 3 to inhibit both signaling and proliferation | sensitivity of cell proliferation (NCI-H1781 cells): sensitive | inhibition of feedback activated HER2/HER3 signaling ([3]; CHL-1, after 24 h DMSO or 500 nM lapatinib, then 24 h dose response): better able to inhibit feedback activated HER2/HER3 signaling | inhibition of p-HER3 and PI3K/Akt pathway ([3]; CHL-1, dose response 24 h): better able to inhibit p-HER3 and thus the PI3K/Akt pathway | reduction of cell growth (confluence) (CHL-1 cells): more effective at reducing the growth of CHL-1 cells | inhibition of feedback-released signaling [4]: complete inhibition

SMILES: CS(=O)(=O)CCNCc1ccc(-c2ccc3ncnc(Nc4ccc(OCc5cccc(F)c5)c(Cl)c4)c3c2)o1 [lapatinib]
inhibition of proliferation [5]: unable to inhibit the proliferation
